Laboratory results published in patent publication US6667317B2, “Pharmaceutical combinations for the treatment of stroke and traumatic brain injury” (Pfizer Inc, priority 2000, dated 2003).

How the values were obtained:
α1 adrenergic receptor = assay: Displacement of specific binding of [3H]prazosin from rat forebrain membranes; conditions: 0.2 nM [3H]prazosin, affinity defined as IC50 for displacement of specific binding
Description: Compounds of the formula I have selectivity for NR^2B subunit-containing NMDA receptors over α1-adrengergic receptors. Affinity for the NR^2B subunit containing NMDA receptor is measured as the IC50 for displacement of specific binding of racemic [^3H] (+)-(1S, 2S)-1-(4-hydroxy-phenyl)-2-(4-hydroxy4-phenylpiperidino)-1-propanol from rat forebrain membranes (described above). Affinity for the α1-adrengergic receptor is defined as the IC50 for displacement of specific binding of racemic [^3H]prazosin from rat brain membranes, measured as described by Greengrass and Bremner (Binding Characteristics of [^3H]prazosin to Rat Brain α-Adrenergic Receptors, European Journal of Pharmacology, 55, 323-326, (1979)).
Forebrains of adult male Sprague Dawley rats are homogenized in 20 volumes of ice cold 50 mM Tris/HCl buffer (pH 7.7). The homogenate is centrifuged at 50,000×g for 10 minutes at 4° C. The pellet is resuspended and centrifuged under identical conditions and the final pellet is resuspended in 80 volumes of 50 mM Tris/HCl (pH 8.0) at 4° C.
For binding assays, compounds under study are added at various concentrations to 500 μg membrane protein in 1 ml of 50 mM Tris/HCl buffer, followed by [^3H]prazosin (Amersham, specific activity 33 Ci/mmol, 0.2 nM final concentration). Following incubation for 30 min at 25° C. in a shaking water bath, samples are filtered onto Whatman GFB glass fiber filters using a MB-48R Cell Harvester (Brandel Research and Development Laboratories, Gaithersburg Md.). Filters are washed three times for 10s with ice cold Tris HCl buffer and the radioactivity trapped on the filter quantified by liquid scintillation spectroscopy. Nonspecific binding is determined in parallel incubations containing 100 nM prazosin. Specific binding is defined as total binding minus nonspecific binding.

[1] = molecular target: T1, NR2B subunit containing NMDA receptor (Rattus norvegicus, UniProt P35439+Q00960); assay: Displacement of specific binding of racemic [3H](+)-(1S,2S)-1-(4-hydroxy-phenyl)-2-(4-hydroxy-4-phenylpiperidino)-1-propanol ([3H]CP-101,606) from rat forebrain membranes; conditions: ratio of the two binding IC50s; selectivity for NR2B NMDA receptor over α1 adrenergic receptor; greater than three is considered selective
T1 construct: (+)-(1S, 2S)-1-(4-hydroxy-phenyl)-2-(4-hydroxy4-phenylpiperidino)-1-propanol from rat forebrain membranes; from tissue; host or cells: forebrain membranes of adult male CD rats
Description: This affinity is assessed in a radioligand binding assay as described below.
The binding of racemic [^3H] […] Forebrains of adult male CD rats are homogenized in 0.32M sucrose at 4° C. The crude nuclear pellet is removed by centrifugation at 1,000×g for 10 minutes, and the supernatant centrifuged at 17,000×g for 25 minutes. The resulting pellet is resuspended in 5 mM Tris acetate pH 7.4 at 4° C. for 10 minutes to lyse cellular particles and again centrifuged at 17,000×g. The resulting pellet is washed twice in Tris acetate, resuspended at 10 mg protein/ml and stored at −20° C. until use.
For binding assays, membranes are thawed, homogenized, and diluted to 0.5 mg protein/ml with 50 mM Tris HCl, pH 7.4. Compounds under study are added at various concentrations followed by racemic [^3H] […] Following incubation for 20 min at 30° C. in a shaking water bath, samples are filtered onto Whatman GFB glass fiber filters using a MB-48R Cell Harvester (Brandel Research and Development Laboratories, Gaithersburg Md.). Filters are washed for 10 s with ice cold Tris HCl buffer and the radioactivity trapped on the filter quantified by liquid scintillation spectroscopy. […] Specific binding is defined as total binding minus nonspecific binding.
Affinity for the NR^2B subunit containing NMDA receptor is measured as the IC50 for displacement of specific binding of racemic [^3H] […] Affinity for the α1-adrengergic receptor is defined as the IC50 for displacement of specific binding of racemic [^3H]prazosin from rat brain membranes, measured as described by Greengrass and Bremner (Binding Characteristics of [^3H]prazosin to Rat Brain α-Adrenergic Receptors, European Journal of Pharmacology, 55, 323-326, (1979)).

T1 sequence (Q00960 27-1482, other chains not shown): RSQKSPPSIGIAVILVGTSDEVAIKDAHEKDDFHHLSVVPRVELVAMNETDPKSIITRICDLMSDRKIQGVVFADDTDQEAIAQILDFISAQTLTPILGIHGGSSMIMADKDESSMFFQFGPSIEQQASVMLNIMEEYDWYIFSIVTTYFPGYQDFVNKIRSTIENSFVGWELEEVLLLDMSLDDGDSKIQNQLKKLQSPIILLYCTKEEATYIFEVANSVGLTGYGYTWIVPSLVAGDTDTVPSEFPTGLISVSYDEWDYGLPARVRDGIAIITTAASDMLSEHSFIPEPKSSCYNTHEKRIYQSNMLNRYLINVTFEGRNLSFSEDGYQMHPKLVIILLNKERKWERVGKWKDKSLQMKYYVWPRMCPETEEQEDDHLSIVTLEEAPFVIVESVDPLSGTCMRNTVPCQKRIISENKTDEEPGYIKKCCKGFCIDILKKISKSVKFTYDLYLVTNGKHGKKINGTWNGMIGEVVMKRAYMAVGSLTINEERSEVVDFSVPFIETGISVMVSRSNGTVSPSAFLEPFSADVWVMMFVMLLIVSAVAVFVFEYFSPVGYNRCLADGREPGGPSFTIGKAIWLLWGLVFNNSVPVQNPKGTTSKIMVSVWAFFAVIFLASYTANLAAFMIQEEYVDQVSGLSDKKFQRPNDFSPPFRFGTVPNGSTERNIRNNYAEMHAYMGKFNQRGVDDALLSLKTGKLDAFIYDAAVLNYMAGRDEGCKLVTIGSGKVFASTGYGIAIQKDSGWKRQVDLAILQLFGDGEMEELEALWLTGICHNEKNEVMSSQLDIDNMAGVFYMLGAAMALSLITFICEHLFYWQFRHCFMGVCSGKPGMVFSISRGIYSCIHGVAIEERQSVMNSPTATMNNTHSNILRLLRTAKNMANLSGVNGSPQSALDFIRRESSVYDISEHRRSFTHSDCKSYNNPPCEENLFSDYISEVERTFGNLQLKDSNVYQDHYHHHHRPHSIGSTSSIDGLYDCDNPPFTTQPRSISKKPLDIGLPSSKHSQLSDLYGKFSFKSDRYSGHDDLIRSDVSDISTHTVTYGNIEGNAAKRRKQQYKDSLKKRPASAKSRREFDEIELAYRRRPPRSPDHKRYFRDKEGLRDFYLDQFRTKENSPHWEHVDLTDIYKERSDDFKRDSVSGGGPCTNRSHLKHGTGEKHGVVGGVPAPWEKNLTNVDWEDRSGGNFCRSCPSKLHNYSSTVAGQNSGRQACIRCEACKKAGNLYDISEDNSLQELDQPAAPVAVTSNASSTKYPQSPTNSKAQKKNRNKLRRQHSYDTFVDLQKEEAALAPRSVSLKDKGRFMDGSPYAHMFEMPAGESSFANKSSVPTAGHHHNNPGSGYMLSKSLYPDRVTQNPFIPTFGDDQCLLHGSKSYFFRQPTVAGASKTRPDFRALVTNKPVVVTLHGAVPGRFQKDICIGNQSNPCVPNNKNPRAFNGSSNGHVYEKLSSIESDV

melting point	SMILES	IC50 (α1 adrenergic receptor)	Ratio [^3H]Prazosin/[^3H](+)-(1S, 2S)-1-(4-hydroxy-phenyl)-2-(4-hydroxy-4-phenylpiperidino)-1-propanol [1]
159 to 160 °C	Oc1ccc2c(c1)OCC(N1CCC(O)(c3ccc(F)cc3)CC1)[C@H]2O (stereo in doubt)		
	Cc1cc([C@@H](O)[C@@H](C)N2CCC(O)(c3ccc(F)cc3)CC2)ccc1O (relative stereo) [(1R*, 2R*)-1-(4-hydroxy-3-methylphenyl)-2-(4-(4-fluorophenyl)-4-hydroxypiperidin-1-yl)-propan-1-ol-mesylate]	10 µM	
	COc1cc([C@H](O)[C@H](C)N2CCC(O)(c3ccccc3)CC2)ccc1O [1S, 2S 1-(4-hydroxy-3-methoxyphenyl)-2-(4-hydroxy-4-phenyl-piperidin-1-yl)-propan-1-ol]	8.1 µM	86
	OC(CN1CCC(Cc2ccc(F)cc2)CC1)c1ccc(Cl)cc1 (stereo not drawn) [Eliprodil, reference compound]	0.98 ± 0.22 µM	2.2
	C[C@@H]([C@@H](O)c1ccc(O)cc1)N1CCC(O)(c2ccccc2)CC1 [(1S,2S)-1-(4-hydroxyphenyl)-2-(4-hydroxy-4-phenylpiperidino)-1-propanol]	19.5 µM	
	Oc1ccc2c(c1)OC[C@@H](N1CCC(O)(c3ccc(F)cc3)CC1)[C@H]2O [(3R,4S)-3-[4-(4-fluorophenyl)-4-hydroxy-piperidin-1-yl]-chroman-4,7-diol]	> 10 µM	≧555
